Results published in patent publication US6399083B1, “Cosmetic compositions containing chick pea extract and retinoids” (Unilever Home & Personal Care USA, division of Conopco, Inc., priority 1999, dated 2002).

Test system: CRABP-2
Experiment: CRABP-2 protein expression in fibroblasts by Western immuno-blotting and densitometric scanning
Format: cell-based, Human
Conditions: for As % of control: control as 100%
Protocol: Dried chick pea was purchased from local markets and powdered in a dry grinder. The alcoholic extract of chick pea was prepared by stirring 1 gram of the dry chick pea powder in 10 ml of ethanol for 4 to 24 hrs at room temperature. The extract was clarified by filtration and centrifugation, to obtain a 10% extract of chick pea in ethanol.
Human adult fibroblasts obtained from sun-protected inner arm of […] were used in this. Cells were grown in 1:1 DMEM/Hams F12 media containing 10% FBS, maintained at 37 C. in a 5% CO2 atmosphere under normal atmospheric oxygen tension. Third passage adult fibroblasts were grown in DMEM media with 10% FBS in 12-well plates at a seeding density of 40,000 cells/ml/well. The cells at 80% confluence were rinsed in serum free and phenol red free (PRF) DMEM media twice. Pre-treatment with chick pea extract for 4 hours was conducted and then dosed with retinoids and was incubated for 48 hours. After the incubation, the wells were washed twice with 1×PBS and the cell monolayer was harvested in 100 μI cell lysis buffer (contains 1×PBS, 1% TritonX, 0.5% sodium deoxycholate, 0.1% SDS containing protease inhibitor (10 mg/ml PMSF in isopropanol, 10 μl/ml)). The suspension was spun at 14000 rpm for 10 minutes, the supernatant collected and an aliquot of this supernatant was used for protein quantification. Protein concentration was determined using Pierce protein kit. The remainder of 100 μl supernatant (cell lysate) was denatured in a mixture of 40 μl sample buffer (NOVEX) and 0.5% Beta mercaptoethanol (BME) and by boiling the sample for 5 minutes. Equal amount of protein was then loaded onto 16% Tris-glycine gels for protein analysis by SDS page and Western Immuno-blotting for CRABP-2 protein expression.
To measure the levels of CRABP-2 in the fibroblasts prepared as described above, the cell supernatant was re-suspended in 4×sample buffer and 0.5% BME, boiled for 5 minutes and used for western blotting. Equal amounts of protein were loaded onto 16% Tris-glycine gels for CRABP-2 protein analysis by SDS page and Western Immuno-blotting. The gels were transferred to nitrocellulose blots and Western Blotting was carried out using monoclonal antibodies to CRABP-2 according to standard procedures. The CRABP-2 protein band was visualized in the Western Blots using the chemiluminescence system obtained from Santa Cruz Biotechnology (Santa Cruz, Calif.). The bands in the film were quantitated by densitometric scanning, the data from triplicate samples were calculated as % of control and expressed in the following tables as % increase over control (with control as 100%) +/−SD of triplicates.

[1] = Example 1: 100 nM retinoids and 0.1 μl of a 10% chick pea extract, 4 h extract pre-treatment, 48 h incubation, +/- SD of triplicates
[2] = Example 1: 100 nM retinoids and 0.1 μl of a 10% chick pea extract, +/- SD of triplicates
[3] = Example 1: 100 nM retinoids and 0.1 μl of a 10% chick pea extract
[4] = Example 3: 500 nM retinoids and 0.1 μl of a 10% chick pea extract, +/- SD of triplicates
[5] = Example 3: 500 nM retinoids and 0.1 μl of a 10% chick pea extract
[6] = second table headed Example 3: 500 nM retinoids and 0.1 μl of a 10% chick pea extract, +/- SD of triplicates
[7] = second table headed Example 3: 500 nM retinoids and 0.1 μl of a 10% chick pea extract

| SMILES | CRABP-2 levels [1] | CRABP-2 levels [2] | As % of control [3] | As % of control [2] | CRABP-2 levels [4] | As % of control [5] | CRABP-2 levels [6] | As % of control [7] |
| --- | --- | --- | --- | --- | --- | --- | --- | --- |
| CC(=O)OC/C=C(C)/C=C/C=C(C)/C=C/C1=C(C)CCCC1(C)C [Retinyl acetate, retinyl acetate] | 1.44 +/− 0.26 | 1.44 +/− 0.26 | 206 +/− 37 % of control | 206 +/− 37 % of control | 1.65 +/− 0.49 | 235 +/− 70 % of control | 1.65 +/− 0.49 | 235 +/− 70 % of control |
| CC1=C(/C=C/C(C)=C/C=C/C(C)=C/CO)C(C)(C)CCC1 [Retinol] | 2.02 +/− 0.23 | 2.02 +/− 0.23 | 289 +/− 34 % of control | 289 +/− 34 % of control | 0.72 +/− 0.04 | 102 +/− 6 % of control | 0.72 +/− 0.04 | 102 +/− 6 % of control |
| CCCCCCCCCCCCCCCC(=O)OC/C=C(C)/C=C/C=C(C)/C=C/C1=C(C)CCCC1(C)C [Retinyl Palmitate, retinyl palmitate] | 1.84 +/− 0.16 | 1.84 +/− 0.16 | 262 +/− 24 % of control | 262 +/− 24 % of control | 0.94 +/− 0.31 | 135 +/− 45 % of control | 0.94 +/− 0.31 | 135 +/− 45 % of control |
| CCCCC/C=C\C/C=C\CCCCCCCC(=O)OC/C=C(C)/C=C/C=C(C)/C=C/C1=C(C)CCCC1(C)C [Retinyl linoleate, retinyl linoleate] | 2.06 +/− 0.09 | 2.06 +/− 0.09 | 294 +/− 12 % of control | 294 +/− 12 % of control | 0.81 +/− 0.16 | 115 +/− 23 % of control | 0.81 +/− 0.16 | 115 +/− 23 % of control |
